Test results reported in ChEMBL document CHEMBL3832033, “DailyMed|setid=f21494ed-c5e8-4ddf-b140-ecd68c5c312b | CLARITHROMYCIN EXTENDED RELEASE - clarithromycin tablet, film coated, extended release|Ranbaxy Pharmaceuticals Inc”.
“And” between values parts separate entries of the source, which are not always exact repeats. Identical values can stand only once.

How the values were obtained:
[1] = (§1) Pharmacokinetic parameters for Clarithromycin evaluated after single oral administration of 1000 or 2 x 500 mg Clarithromycin extended-release tablets to 34 adult volunteers under fasting and feeding conditions.; type: ADME, organism-based; design: dose 1000 mg, dose 2 x 500, route oral; settings: human, in vivo, dosed compound id 21, dosed compound name CLARITHROMYCIN, gender male and female, regimen Single dose, tissue Plasma
Homo sapiens = test: as §1; type: ADME, organism-based; design: dose 1000 mg, dose 2 x 500, route oral; settings: in vivo, po, dosed compound id 21, dosed compound name CLARITHROMYCIN, gender male and female, regimen Single dose, tissue Plasma

With `CC[C@H]1OC(=O)[C@H](C)[C@@H](O[C@H]2C[C@@](C)(OC)[C@@H](O)[C@H](C)O2)[C@H](C)[C@@H](O[C@@H]2O[C@H](C)C[C@H](N(C)C)[C@H]2O)[C@](C)(OC)C[C@@H](C)C(=O)[C@H](C)[C@@H](O)[C@]1(C)O` [CLARITHROMYCIN] the AUC ([1]; po, 1000 mg, dietary status Fasting, read-out: AUC(0-t)) was 36600 ng·h/mL, the Cmax ([1]; po, 1000 mg, dietary status Fed) was 3960 ng/mL and the Tmax ([1]; dietary status Fasting, dose 1000 mg, route oral) was 11 h. For the same molecule, the Tmax (Homo sapiens; dietary status Fasting, dose 2 x 500 mg) was 9.588 h, the “AUC(0-t)” value (Homo sapiens; dietary status Fasting) was 37615.9151 ng·h/mL and the Tmax (Homo sapiens; dietary status Fed, dose 1000 mg) was 6.118 h. For the same molecule, the Tmax (Homo sapiens; dietary status Fed, dose 2 x 500 mg) was 6.235 h, the “AUC(0-t)” value (Homo sapiens; dietary status Fed) was 58485.5053 ng·h/mL and 60796.1185 ng·h/mL and the Cmax (Homo sapiens; dietary status Fed) was 3478.3286 ng/mL.
